Test results taken from US20250213524A1, “COMPOSITIONS FOR USE” (Amazentis SA, priority 2023, published 2025).

Tested on: human sperm
Experiment: Ex vivo incubation of human semen samples with urolithin A, motility by computer-assisted semen analysis (CEROS II)
Format: cell-based
Conditions: for Motile sperm concentration (million/mL), UA vs. DMSO: 4 hours incubation at 36° C.; for Motile sperm concentration (million/mL), UA vs. DMSO / BCF Beat Cross-Frequency, UA vs. DMSO / Rapid progressive motile sperm concentration (million/mL), UA vs. DMSO: increase vs. DMSO; for Rapid progressive motile sperm concentration (million/mL), UA vs. DMSO: rapid progressive motility >25 μm/s; for motile sperm concentration: increase
Experimental: Sperm samples from five healthy men donors were processed within 1 hour of collection. 3 samples were either diluted 1:1 in culture media containing DMSO or urolithin A (UA) (0.05, 0.1, 0.5, and 2.0 μM in DMSO). For these samples, all treatments contained the same amount of DMSO. Two samples were pre-diluted in culture media, which was then diluted in the treatment solutions, immediately. This was to decrease the eventual effect of seminal plasma. Samples were incubated for 4 hours with the indicated UA doses. For the study, semen samples were obtained by masturbation after 2-7 days of ejaculatory abstinence, according to World Health Organization Guidelines (https://www.who.int/publications/i/item/9789240030787). Samples were collected into sterile wide-mouth polypropylene containers tested for sperm toxicity (BIRR semen collection container, IVF store code 113102). After collection, samples were kept in an air incubator for 1 hour, until semen liquefaction. For experiments, a 50 mM stock Urolithin A (UA) solution was prepared in Dimethyl Sulfoxide (DMSO, Fisher Scientific, BP231-100). At the day of the experiments, a working solution was prepared by diluting the 50 mM stock solution 1:1000 in Sperm Washing Medium (FujiFilm Modified HTF Medium with Human Serum Albumin, 5.0 mg/mL, catalog ID: 9983). A blank working solution containing only DMSO was also prepared by diluting DMSO 1:1000 in Sperm Washing Medium. Treatment solutions were then prepared containing 0, 0.1 μM, 0.2 μM, 1.0 μM, and 4.0 μM were prepared as follows: Treatment solutions were then diluted 1:1 with raw semen (samples A, B, and D) or with semen that had been pre-diluted 1:1 in Sperm Washing Medium (samples C and E), so that final achieved treatment concentrations were 0 (blank, DMSO only, 0.05 µM, 0.1 μM, 0.5 μM, and 2.0 µM UA. This was incubated at 36° C. for 4 hours, after which motility was assessed using a CEROS II system for computer-assisted semen analysis (Hamilton Thorne Inc., Beverly, MA, USA). To achieve this, 4-chamber 20 μm Leja slides (IMV International Ref. 025107-025108) were pre-heated at 37° C. 2.5 μL of each sample was pipetted into each chamber, and the Human Motility module of the CEROS II system was used to capture multiple fields (at least 6) in order to determine sperm motility parameters.

[1] = all doses (0.05, 0.1, 0.5, 2.0 μM), 4 hours incubation

For O=c1oc2cc(O)ccc2c2ccc(O)cc12 [UA, Urolithin A], the “Motile sperm concentration (million/mL), UA vs. DMSO” value (0.05 uM UA) was 2%, the “BCF Beat Cross-Frequency, UA vs. DMSO” value (0.05 uM UA, 4 hours incubation, motile sperm) was 5% and the “Rapid progressive motile sperm concentration (million/mL), UA vs. DMSO” value (0.05 uM UA, 4 hours incubation) was 2%. The “Motile sperm concentration (million/mL), UA vs. DMSO” value (0.1 uM UA) was 16.8%, the “BCF Beat Cross-Frequency, UA vs. DMSO” value (0.1 uM UA, 4 hours incubation, motile sperm) was 6% and the “Rapid progressive motile sperm concentration (million/mL), UA vs. DMSO” value (0.1 uM UA, 4 hours incubation) was 20%. For the same molecule, the “Motile sperm concentration (million/mL), UA vs. DMSO” value (0.5 uM UA) was 10.7%, the “BCF Beat Cross-Frequency, UA vs. DMSO” value (0.5 uM UA, 4 hours incubation, motile sperm) was 9% and the “Rapid progressive motile sperm concentration (million/mL), UA vs. DMSO” value (0.5 uM UA, 4 hours incubation) was 10%. For the same molecule, the “Motile sperm concentration (million/mL), UA vs. DMSO” value (2 uM UA) was 21.4%, the “BCF Beat Cross-Frequency, UA vs. DMSO” value (2 uM UA, 4 hours incubation, motile sperm) was 7% and the “Rapid progressive motile sperm concentration (million/mL), UA vs. DMSO” value (2 uM UA, 4 hours incubation) was 20%. For the same molecule, the “Motile sperm concentration, effect in words” value [1] was “increased at all doses”, the “Rapid progressive motile sperm concentration, effect in words” value [1] was “increased at all doses” and the “Beat Cross-Frequency, effect in words” value (all doses (0.05, 0.1, 0.5, 2.0 μM), motile sperm, 4 hours incubation) was “an increase by UA at all doses”. For the same molecule, the “sperm motility / sperm health, effect in words” value (applied ex vivo to human sperm, especially 0.1 uM to 2 uM) was “increases sperm motility”, the “motile sperm concentration” value (highest UA 2 μM dose, 4 hours incubation) was 20% and the “motile sperm concentration” value (lower dose of UA 0.05 μM, 4 hours incubation) was 2%.
